Values quoted from earlier work in PMC7395068, “The evolution of strategies to minimise the risk of human drug-induced liver injury (DILI) in drug discovery and development” (Archives of Toxicology, 2020).
Where two headings read alike, the source gives them in different places.

Conditions: cited from earlier work
[1] = binary in vivo DILI call given beside the severity category, ref Chen 2016
[2] = human DILI concern category (LTKB DILIrank), ref Chen 2016
[3] = LTKB DILIrank category, ref Chen 2016
[4] = binary human DILI assignment, ref Chen 2016

| Compound | DILI +VE (5-8), DILI -VE (-4) [1] | DILI severity category [2] | other results |
| --- | --- | --- | --- |
| CNC(=O)c1cnn(-c2nc(N)c3ncn([C@@H]4O[C@H](CO)[C@@H](O)[C@H]4O)c3n2)c1 [regadenoson] | – | – | DILI +VE (5-8), DILI -VE (-4) (in vivo): -VE; DILI severity category (in vivo): vNo-DILI-Concern |
| CCOc1cc(CC(=O)N[C@@H](CC(C)C)c2ccccc2N2CCCCC2)ccc1C(=O)O [repaglinide] | +VE | vLess-DILI-Concern | – |
| COC(=O)[C@H]1[C@H]2C[C@@H]3c4[nH]c5cc(OC)ccc5c4CCN3C[C@H]2C[C@@H](OC(=O)c2cc(OC)c(OC)c(OC)c2)[C@@H]1OC [reserpine] | -VE | vNo-DILI-Concern | – |
| CO[C@H]1/C=C/O[C@@]2(C)Oc3c(C)c(O)c4c(c3C2=O)C2=NC3(CCN(CC(C)C)CC3)NC2=C(NC(=O)/C(C)=C\C=C\[C@H](C)[C@H](O)[C@@H](C)[C@@H](O)[C@@H](C)[C@H](OC(C)=O)[C@@H]1C)C4=O [rifabutin] | +VE | vLess-DILI-Concern | – |
| CC(N)C12CC3CC(CC(C3)C1)C2 (stereo not drawn) [rimantadine] | -VE | vNo-DILI-Concern | – |
| CCN(C)C(=O)Oc1cccc([C@H](C)N(C)C)c1 [rivastigmine] | +VE | vLess-DILI-Concern | – |
| CN(C)CCc1c[nH]c2ccc(Cn3cncn3)cc12 [rizatriptan] | -VE | vNo-DILI-Concern | – |
| C=CC[N+]1([C@H]2C[C@H]3[C@@H]4CC[C@H]5C[C@H](O)[C@@H](N6CCOCC6)C[C@]5(C)[C@H]4CC[C@]3(C)[C@H]2OC(C)=O)CCCC1 [rocuronium] | – | – | DILI +VE (5-8), DILI -VE (-4) (in vivo): -VE; DILI severity category (in vivo): vNo-DILI-Concern |
| CCCN(CCC)CCc1cccc2c1CC(=O)N2 [ropinirole] | +VE | vLess-DILI-Concern | – |
| CC(C)(C)NCC(O)c1ccc(O)c(CO)c1 (stereo not drawn) [salbutamol] | -VE | vNo-DILI-Concern | – |
| O=C(Oc1ccccc1C(=O)O)c1ccccc1O [salsalate] | +VE | vLess-DILI-Concern | – |
| C=CCC1(C(C)CCC)C(=O)NC(=O)NC1=O (stereo not drawn) [secobarbital] | -VE | Ambiguous DILI-concern | – |
| CC(C)CC(N(C)C)C1(c2ccc(Cl)cc2)CCC1 (stereo not drawn) [sibutramine] | – | – | DILI +VE (5-8), DILI -VE (-4) (in vivo): +VE; DILI severity category (in vivo): vLess-DILI-Concern |
| C[C@H](Cc1cc2c(c(C(N)=O)c1)N(CCCO)CC2)NCCOc1ccccc1OCC(F)(F)F [silodosin] | -VE | Ambiguous DILI-concern | – |
| CSCC[C@H](NC(=O)[C@H](Cc1ccc(OS(=O)(=O)O)cc1)NC(=O)[C@@H](N)CC(=O)O)C(=O)NCC(=O)N[C@@H](Cc1c[nH]c2ccccc12)C(=O)N[C@@H](CCSC)C(=O)N[C@@H](CC(=O)O)C(=O)N[C@@H](Cc1ccccc1)C(N)=O [sincalide] | – | – | DILI +VE (5-8), DILI -VE (-4) (in vivo): -VE; DILI severity category (in vivo): vNo-DILI-Concern |
| CO[C@H]1C[C@@H]2CC[C@@H](C)[C@@](O)(O2)C(=O)C(=O)N2CCCC[C@H]2C(=O)O[C@H]([C@H](C)C[C@@H]2CC[C@@H](O)[C@H](OC)C2)CC(=O)[C@H](C)/C=C(\C)[C@@H](O)[C@@H](OC)C(=O)[C@H](C)C[C@H](C)/C=C/C=C/C=C/1C [sirolimus] | +VE | vLess-DILI-Concern | – |
| N[C@@H](CC(=O)N1CCn2c(nnc2C(F)(F)F)C1)Cc1cc(F)c(F)cc1F [sitagliptin] | +VE | vLess-DILI-Concern | – |
| O=C([O-])O.[Na+] [sodium bicarbonate] | – | – | DILI +VE (5-8), DILI -VE (-4) (in vivo): -VE |
| CC(O)C(=O)[O-].[Na+] (stereo not drawn) [sodium lactate] | – | – | DILI +VE (5-8), DILI -VE (-4) (in vivo): -VE; DILI severity category (in vivo): vNo-DILI-Concern |

| Compound | DILI +VE (5-8), DILI -VE (-4) [1] | DILI severity category [2] | other results |
| --- | --- | --- | --- |
| O=S([O-])([O-])=S.[Na+].[Na+] [sodium thiosulfate] | – | – | DILI +VE (5-8), DILI -VE (-4) (in vivo): -VE; DILI severity category (in vivo): vNo-DILI-Concern |
| O=C(O)[C@@H](S)[C@@H](S)C(=O)O [succimer] | +VE | vLess-DILI-Concern | – |
| C[N+](C)(C)CCOC(=O)CCC(=O)OCC[N+](C)(C)C [succinylcholine] | -VE | vNo-DILI-Concern | – |
| CCCCCCCCNC(C)C(O)c1ccc(SC(C)C)cc1 (stereo not drawn) [sulcotidil] | – | – | DILI +VE (5-8), DILI -VE (-4) (in vivo): +VE; DILI severity category (in vivo): vMost-DILI-Concern |
| NC(=O)NS(=O)(=O)c1ccc(N)cc1 [sulfacarbamide] | +VE | vMost-DILI-Concern | – |
| Nc1ccc(S(=O)(=O)Nc2ncccn2)cc1 [sulfadiazine] | +VE | vLess-DILI-Concern | – |
| Nc1ccc(S(=O)(=O)Nc2nccs2)cc1 [sulfathiazole] | +VE | vMost-DILI-Concern | – |
| CN1CC(=O)N2[C@H](c3ccc4c(c3)OCO4)c3[nH]c4ccccc4c3C[C@@H]2C1=O [tadalafil] | -VE | Ambiguous DILI-concern | – |
| CC[C@@H](c1cccc(O)c1)[C@@H](C)CN(C)C [tapentadol] | -VE | vNo-DILI-Concern | – |
| CCCCCNC(=N)N/N=C/c1c[nH]c2ccc(OC)cc12 [tegaserod] | -VE | Ambiguous DILI-concern | – |
| COc1cc([C@@H]2c3cc4c(cc3[C@@H](O[C@@H]3O[C@@H]5CO[C@@H](c6cccs6)O[C@H]5[C@H](O)[C@H]3O)[C@H]3COC(=O)[C@H]23)OCO4)cc(OC)c1O [teniposide] | +VE | vLess-DILI-Concern | – |
| COc1cc2c(cc1OC)C1CC(=O)C(CC(C)C)CN1CC2 (stereo not drawn) [tetrabenazine] | -VE | Ambiguous DILI-concern | – |
| C[C@H](O)[C@H](O)[C@H]1CNc2nc(N)[nH]c(=O)c2N1 [tetrahydrobiopterin] | -VE | vNo-DILI-Concern | – |
| O=C1CCC(N2C(=O)c3ccccc3C2=O)C(=O)N1 (stereo not drawn) [thalidomide] | +VE | vLess-DILI-Concern | – |
| c1ccc2[nH]c(-c3cscn3)nc2c1 [thiabendazole] | +VE | vMost-DILI-Concern | – |
| S=P(N1CC1)(N1CC1)N1CC1 [thiotepa] | +VE | vLess-DILI-Concern | – |
| Cc1ccsc1C(=CCCN1CCC[C@@H](C(=O)O)C1)c1sccc1C [tiagabine] | -VE | Ambiguous DILI-concern | – |
| CN(C)c1cc(NC(=O)CNC(C)(C)C)c(O)c2c1C[C@H]1C[C@H]3[C@H](N(C)C)C(O)=C(C(N)=O)C(=O)[C@@]3(O)C(O)=C1C2=O [tigecycline] | -VE | Ambiguous DILI-concern | – |
| Cc1cc(Br)c(O)c2ncccc12 [tilbroquinol] | +VE | vMost-DILI-Concern | – |

| Compound | DILI +VE (5-8), DILI -VE (-4) [1] | DILI severity category [2] | other results |
| --- | --- | --- | --- |
| O=P(O)(O)C(Sc1ccc(Cl)cc1)P(=O)(O)O [tiludronate] | -VE | vNo-DILI-Concern | – |
| CC(C)(C)NC[C@H](O)COc1nsnc1N1CCOCC1 [timolol] | -VE | Ambiguous DILI-concern | – |
| CC(S)C(=O)NCC(=O)O (stereo not drawn) [tiopronin] | -VE | Ambiguous DILI-concern | – |
| CCCCS(=O)(=O)N[C@@H](Cc1ccc(OCCCCC2CCNCC2)cc1)C(=O)O [tirofiban] | -VE | vNo-DILI-Concern | – |
| Clc1ccc2nsnc2c1NC1=NCCN1 [tizanidine] | – | – | DILI +VE (5-8), DILI -VE (-4) (in vivo): +VE; DILI severity category (in vivo): vMost-DILI-Concern |
| COc1ccc2c(C(=S)N(C)CC(=O)O)cccc2c1C(F)(F)F [tolrestat] | +VE | vMost-DILI-Concern | – |
| Cc1ccccc1C(=O)Nc1ccc(C(=O)N2CCCC(O)c3cc(Cl)ccc32)c(C)c1 (stereo not drawn) [tolvaptan] | +VE | vMost-DILI-Concern | – |
| CC[C@@]1(O)C(=O)OCc2c1cc1n(c2=O)Cc2cc3c(CN(C)C)c(O)ccc3nc2-1 [topotecan] | -VE | vNo-DILI-Concern | – |
| CCOC(=O)[C@H](CCc1ccccc1)N[C@@H](C)C(=O)N1[C@H](C(=O)O)C[C@H]2CCCC[C@@H]21 [trandolapril] | +VE | vLess-DILI-Concern | – |
| CC(=O)Oc1ccc(C2(c3ccc(OC(C)=O)cc3)C(=O)N(C(C)=O)c3ccccc32)cc1 [triacetyldiphenolisatin] | +VE | vMost-DILI-Concern | – |
| Nc1nc(N)c2nc(-c3ccccc3)c(N)nc2n1 [triamterene] | +VE | vLess-DILI-Concern | – |
| Cc1nnc2n1-c1ccc(Cl)cc1C(c1ccccc1Cl)=NC2 [triazolam] | – | – | DILI +VE (5-8), DILI -VE (-4) (in vivo): -VE; DILI severity category (in vivo): Ambiguous DILI-concern |
| Cl.Cl.NCCNCCNCCN [trientine hydrochloride] | – | – | DILI +VE (5-8), DILI -VE (-4) (in vivo): -VE; DILI severity category (in vivo): vNo-DILI-Concern |
| COc1cc(C(=O)NCc2ccc(OCCN(C)C)cc2)cc(OC)c1OC [trimethobenzamide] | -VE | Ambiguous DILI-concern | – |
| COc1cc(NCc2ccc3nc(N)nc(N)c3c2C)cc(OC)c1OC [trimetrexate] | -VE | Ambiguous DILI-concern | – |
| CC(CN(C)C)CN1c2ccccc2CCc2ccccc21 (stereo not drawn) [trimipramine] | -VE | Ambiguous DILI-concern | – |
| NC(CO)(CO)CO [tromethamine] | – | – | DILI severity category [3]: Ambiguous DILI-concern; DILI +VE (5-8), DILI -VE (-4) [4]: -VE |
| O=C(O[C@H]1C[C@H]2CC[C@@H](C1)[N+]21CCCC1)C(O)(c1ccccc1)c1ccccc1 [trospium] | – | – | DILI severity category [3]: vNo-DILI-Concern; DILI +VE (5-8), DILI -VE (-4) [4]: -VE |
